Values quoted from earlier work, collected in patent publication US10871492B2, “Methods for labeling urine in a subject with fluorophores” (UPTRU INC., priority 2015, dated 2020).

Settings: health care applications, especially fundus angiography

O=C([O-])c1ccccc1-c1c2ccc(=O)cc-2oc2cc([O-])ccc12.[Na+].[Na+] [Fluorescein sodium salt, fluorescein sodium salt]
dose generally considered safe: ≤ 25 mg/kg of body weight
